{
  "source": "paper PMC12904088",
  "about": "“Development of Dimethylsulfonium Probes for Broad Profiling of Methyllysine Reader Proteins” (Advanced Science, 2025)",
  "key": {"SPIN2B [1]": {"test_system": "SPIN2B", "assay": "Western blot: inhibition of crosslinking of probe 12 by MS31", "assay_type": "biochemical, human", "conditions": "2.5 mM probe 12, 10 µM SPIN2B, 200 µM MS31, 0.5% DMSO, UV 30 min, streptavidin-HRP blot; Figure 5D", "procedure": "BPTF, CBX1, and SPIN1 were expressed and purified as previously reported.^[ [54], [59] ^] Full‐length SPIN2B (residues 1–258) from human was cloned into the pET‐28a vector with an N‐terminal 6×His‐SUMO‐tag. It was over‐expressed in Rosetta (DE3) Escherichia coli cells by induction of 0.25 mM isopropyl β‐D‐thiogalactoside (IPTG) at 16 °C overnight when OD600 reached 0.6–0.8 in the LB medium. The harvested cells were suspended in lysis buffer (20 mM Tris, 150 mM NaCl, 0.2 mM PMSF, pH 7.5) and lysed by sonication; then, the cell lysate was centrifuged to remove the insoluble cell debris. The clarified supernatant was loaded on nickel resin equilibrated in lysis buffer. Afterward, the protein‐bound resin was washed sequentially with lysis buffer, high salt buffer (20 mM Tris, 500 mM NaCl, pH 7.5), and 20 mM imidazole buffer (20 mM Tris, 150 mM NaCl, 20 mM imidazole, pH 7.5). The target proteins were eluted by 200 mM imidazole buffer (20 mM Tris, 150 mM NaCl, 200 mM imidazole, pH 7.5), followed by the solution exchanged to storage buffer (20 mM Tris, 150 mM NaCl, pH 7.5). The product was concentrated, snap‐frozen, and stored at −80°C. […]\nFor SPIN1 and SPIN2B found in the volcano plot, 5 sets of samples were designed, respectively. […] Finally, the membranes were washed with 1×TBST buffer three times, and the protein bands were detected by enhanced chemiluminescence reagent."}, "[2]": {"test_system": "HeLa cell nuclei proteins", "assay": "Proteomic experiment for inhibitor evaluation: probe 12 with MS31 competition", "assay_type": "cell-based, Homo sapiens", "procedure": "HeLa cells (1.8 × 10^7) were harvested, washed with pre‐cooled phosphate buffer saline (PBS), and lysed in hypotonic buffer (10 mM Tris, 15 mM NaCl, 1.5 mM MgCl2, 0.2 mM PMSF, pH 7.5) on ice with regular inversion for 10–15 min. After centrifugation at 200 g for 5 min at 4°C, the pellet was resuspended in hypotonic buffer and homogenized with three strokes of a loose pestle Dounce homogenizer. The intact nuclei were washed with a hypotonic buffer and collected by centrifugation. Then, the nuclei were resuspended in crosslink buffer (100 mM HEPES, 150 mM KCl, 1.5 mM MgCl2, 0.2 mM PMSF, pH 7.5) and divided into two groups (Group A and Group B), each of which contained three parallel samples. The general probe was added to Group A. The same amount of the general probe and extra competing peptides was added to Group B. These samples were transferred to a 24‐well plate, incubated on ice for 10 min, and irradiated under 313 nm UV for 20 min on ice. Next, the nuclei were washed with crosslinking buffer three times. […]\nLabel‐free quantification was performed with Proteome Discoverer 2.5, which was used for database searches against the Homo sapiens (Human) proteome database retrieved from UniProtKB (accession UP000005640). […]"}, "SPIN1": {"target": "SPIN1", "conditions": "cited from earlier work", "text": "(§1) To verify this approach, we selected MS31, a potent and selective fragment‐like inhibitor that primarily targets the H3K4me3 reader SPIN1 by binding to its Tudor2 domain.^[ [64], [65], [66] ^] […] We used peptide 12, which replaced desthiobiotin of peptide 5 with biotin to enhance binding affinity to streptavidin beads, for a prot ..."}, "[3]": {"test_system": "broad panel of other epigenetic readers and writers", "conditions": "cited from earlier work", "text": "as §1"}, "SPIN2B [4]": {"test_system": "SPIN2B", "conditions": "cited from earlier work", "text": "as §1"}, "SPIN4": {"test_system": "SPIN4", "conditions": "cited from earlier work", "text": "as §1"}, "tumor growth": {"test_system": "tumor growth", "conditions": "mouse models; cited from earlier work", "text": "(§2) Reader proteins, which specifically recognize methylation modifications at specific sites, are crucial for the biological functions of lysine methylation (Figure 1A).^[ [11], [12], [13], [14] ^] For example, BPTF is a reader of H3K4me3 that is in the NURF complex for RNA polymerase II activities.^[ [15] ^] CBX1 is a reader of H3K9me3 that promotes liquid‐liquid phase separation for the formation of heterochromatin. As a result, the local genes in chromatin are condensed and not accessible to transcription.^[ [16], [17], [18] ^] In addition, readers also play important roles in tumorigenesis. F ..."}, "PRC2": {"test_system": "PRC2", "conditions": "cited from earlier work", "text": "as §2"}, "[5]": {"test_system": "reader proteins (BPTF, CBX1)", "assay": "In vitro crosslinking validation of general competition peptide", "assay_type": "biochemical", "conditions": "2.5 mM general probe, 7.5 mM peptide 13, 10 µM reader, pH 7.5, UV 30 min; Figure 6B", "procedure": "Probes were added to the crosslinking buffer (100 mM HEPES, pH 7.5), followed by the addition of reader proteins. The mixture was transferred to 96‐well plates and incubated on ice for 10 min. After UV irradiation on ice at an energy of 720 mJ cm^−2, the samples were analyzed by UPLC‐Q‐TOF‐MS. The analytical yield was calculated based on the mass peak areas as previously reported.^[ [55] ^] The yield is calculated as the peak area of the desired product divided by the sum of the peak areas of the crosslinking products and the starting material, multiplied by 100%. For crosslinking readers with general probes: The mixture of 5 mM general probes and 10 µM reader proteins (BPTF, CBX1, CDYL2) was crosslinked by the General procedure for crosslinking for 30 min. For competition assays, the mixture of 2.5 mM general probes, 100 µM H3K4me3 (1‐15) or H3K9me3 (1‐15) peptide or 7.5 mM […]me3GG, 10 µM reader proteins (BPTF, CBX1) was crosslinked by the General procedure for crosslinking for 20 min (H3K4me3 or H3K9me3 for competition) or 30 min ([…]me3GG for competition). For Kinetics of reader crosslinking: The mixture of 0.625/1.25/2.5/5/10 mM general probe and 10 µM reader proteins was crosslinked by the General procedure for crosslinking for 20 min. […]"}},
  "note": "Square brackets hold non-standard residues; d marks the D form. Ends that are not written are not given here. Lys(Me3) = C[N+](C)(C)CCCC[C@H](N)C(=O)O",
  "data": [
    {"molecule": "COc1c(CN)cc(CN)cc1OCCCN1Cc2ccccc2C1", "note": "[MS31]", "values": [
      {"measurement": "Inhibition of crosslinking between SPIN2B and probe 12", "setting": "SPIN2B [1]", "value": "can be inhibited by MS31"},
      {"measurement": "Proteins significantly enriched (MS31 competition)", "setting": "[2]; 2.5 mM probe 12 vs + 200 µM MS31, 313 nm UV 20 min, Log2(Fold Change) ≥0.5, p ≤ 0.05, n = 3", "value": 21, "unit": "proteins"},
      {"measurement": "Known MS31 targets identified among enriched proteins", "setting": "[2]; 2.5 mM probe 12 vs + 200 µM MS31, Log2(Fold Change) ≥0.5, p ≤ 0.05, n = 3", "value": "the expected primary target SPIN1 was identified, along with two other SPIN family members, SPIN4 and SPIN2B"},
      {"measurement": "Kd", "setting": "SPIN1", "value": 91, "unit": "nM"},
      {"measurement": "Selectivity (in words)", "setting": "[3]", "value": "high selectivity over a broad panel of other epigenetic readers and writers"},
      {"measurement": "Binding affinity (in words)", "setting": "SPIN2B [4]", "value": "moderate binding affinity"},
      {"measurement": "Binding affinity (in words)", "setting": "SPIN4", "value": "moderate binding affinity"}
    ]},
    {"molecule": "CS(=O)(=O)c1ccc(-c2cnc(NCc3ccco3)n3cnnc23)cc1", "note": "[EED226]", "values": [
      {"measurement": "Tumor growth suppression (in words)", "setting": "tumor growth", "value": "suppresses tumor growth in mouse models"},
      {"measurement": "PRC2 activity inhibition (in words)", "setting": "PRC2", "value": "effectively inhibits PRC2 activity"}
    ]},
    {"molecule": "RKGGGGGG[Lys(Me3)]GG [peptide 13]", "values": [
      {"measurement": "Competition of general probe crosslinking by peptide 13", "setting": "[5]", "value": "three equivalents of the peptide were sufficient to achieve complete competition"}
    ]}
  ]
}
